The values that follow come from publication doi:10.1101/2024.12.30.630793 (bioRxiv, 2024).

One assay concerns the target T1, Acb4 (SPO1 Acb4) (Bacillus phage SPO1, UniProt B6V2Y3).
T1 construct: gene 1.3; recombinant from E. coli BL21(DE3)-RIL, N-terminal 6xHis-SUMO2 fusion, tag cleaved with SENP2; 96 amino acids, homotetramer
T1 sequence (B6V2Y3 1-96): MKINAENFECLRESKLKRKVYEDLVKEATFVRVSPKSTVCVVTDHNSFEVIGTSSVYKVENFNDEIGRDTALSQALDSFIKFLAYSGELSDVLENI
The experiment in a line: Electrophoretic mobility shift assay: titration of recombinant Acb4 with 20 nM alpha-32P-radiolabelled cyclic dinucleotide, 50 mM Tris-HCl pH 7.5, 5 mM MgCl2, 10 mM KCl, 1 mM TCEP, 30 min on ice, nondenaturing 6% PAGE, fraction bound fitted to a single binding model. As to conditions: n = 2.

A further assay deals with Bacillus phage SPO1 Acb4. Format: binding. As to conditions: for pKd: fraction bound fit to a single binding model, n = 2.
In assay [1] the target is Bacillus phage SPO1 anti-CBASS 4 (Acb4) (Bacillus phage SPO1). The experiment in a line: SEC-MALS; recombinant apo SPO1 Acb4 in solution; complex migrates at ~42.3 kDa. (In general: SEC sorts molecules by how far they enter the pores of the column.)

pKd: −log10 of the molar value. Read-outs that look alike come from different tables or passages of the source.

As for `Nc1ncnc2c1ncn2[C@@H]1O[C@@H]2COP(=O)(O)O[C@@H]3[C@H](O)[C@@H](COP(=O)(O)O[C@H]2[C@H]1O)O[C@H]3n1ccc(=O)[nH]c1=O` [2′3′-cUA, 2′3′-cyclic UMP-AMP, c[U(2′,5′)pA(3′,5′)p]], the pKd (in general, −log10 of the Kd, conventionally taken in molar units) at Acb4 (SPO1 Acb4) is 6.19. Consider `Nc1ncnc2c1ncn2[C@@H]1O[C@@H]2COP(=O)(O)O[C@@H]3[C@H](O)[C@@H](COP(=O)(O)O[C@H]2[C@H]1O)O[C@H]3n1ccc(=O)[nH]c1=O` [2′3′-cUA], for which, in the assay on Bacillus phage SPO1 Acb4, the “interaction with Acb4 (EMSA)” value was “recognizes” and the pKd was 6.19. Take `Nc1ncnc2c1ncn2[C@@H]1O[C@@H]2COP(=O)(O)O[C@H]3[C@@H](O)[C@H](n4cnc5c(N)ncnc54)O[C@@H]3COP(=O)(O)O[C@H]2[C@H]1O` [3′3′-cAA, 3′3′-c-di-AMP]: in the assay with Bacillus phage SPO1 Acb4, the “interaction with Acb4 (EMSA)” value is reported as “No interaction was detected”. For the molecule `Nc1nc2c(ncn2[C@@H]2O[C@@H]3COP(=O)(O)O[C@H]4[C@@H](O)[C@H](n5cnc6c(N)ncnc65)O[C@@H]4COP(=O)(O)O[C@H]3[C@H]2O)c(=O)[nH]1` [3′3′-cGAMP, 3′3′-cyclic GMP-AMP, c[G(3′,5′)pA(3′,5′)p]], the pKd at Acb4 (SPO1 Acb4) was 6.80.

As for `Nc1nc2c(ncn2[C@@H]2O[C@@H]3COP(=O)(O)O[C@H]4[C@@H](O)[C@H](n5cnc6c(N)ncnc65)O[C@@H]4COP(=O)(O)O[C@H]3[C@H]2O)c(=O)[nH]1` [3′3′-cGAMP, 3′3′-cyclic GMP-AMP], the pKd is roughly 6.80 at Bacillus phage SPO1 Acb4 and 6.80 at Bacillus phage SPO1 Acb4 (listed as 3'3'-cGAMP). For the molecule `Nc1nc2c(ncn2[C@@H]2O[C@@H]3COP(=O)(O)O[C@H]4[C@@H](O)[C@H](n5cnc6c(=O)[nH]c(N)nc65)O[C@@H]4COP(=O)(O)O[C@H]3[C@H]2O)c(=O)[nH]1` [3′3′-cGG, 3′3′-c-di-GMP], the “interaction with Acb4 (EMSA)” value with Bacillus phage SPO1 Acb4 is reported as “No interaction was detected”. Consider `Nc1ncnc2c1ncn2[C@@H]1O[C@@H]2COP(=O)(O)O[C@H]3[C@@H](O)[C@H](n4ccc(=O)[nH]c4=O)O[C@@H]3COP(=O)(O)O[C@H]2[C@H]1O` [3′3′-cUA, 3′3′-cyclic UMP-AMP, c[U(3′,5′)pA(3′,5′)p]], for which the pKd at Acb4 (SPO1 Acb4) is 6.58. Turning to `Nc1ncnc2c1ncn2[C@@H]1O[C@@H]2COP(=O)(O)O[C@H]3[C@@H](O)[C@H](n4ccc(=O)[nH]c4=O)O[C@@H]3COP(=O)(O)O[C@H]2[C@H]1O` [3′3′-cUA], in the assay on Bacillus phage SPO1 Acb4, the “interaction with Acb4 (EMSA)” value is recorded as “recognizes” and the pKd is 6.58. Regarding “Bacillus phage SPO1 anti-CBASS 4 (Acb4) (natural protein)”, the stoichiometry N (commonly the number of molecules, sites or subunits per partner or assembly) in assay [1] was found to be 4.
